Assay results as given in patent US20120142771A1, “BIPHENYLACETAMIDE DERIVATIVE” (Dainippon Sumitomo Pharma Co., Ltd., priority 2008, published 2012).

Experiments:
Crl: CD (SD) male rats = test: Evaluation of antidepressant effect (forced swimming, duration of immobility); assay type: in vivo
Source text: (§1) Meanwhile, there are no reports about animal models which provide a good clinical prediction to evaluate the improving efficacy for bipolar disorder. However, bipolar disorder comprises “manic state” and “depressive state”, and some animals are reported to be useful as a model to evaluate the improvement of each pathological condition individually. In general, an index of manic state is excessive hyperactivity induced by administering methamphetamine and chlordiazepoxide in combination, and that of depressive state is immobility induced by forced swimming.
Test 6: Evaluation of Antidepressant Effect
Test 6 is a typical test to evaluate the antidepressant activity of medicaments (Porsolt et al., Nature, 266: 730-732, 1977, Porsolt et al., Eur. J. Pharmacol., 47: 379-391, 1978). Crl: CD (SD) male rats (12 rats in each group, body weight 200-250 g) were forced to swim for 15 minutes in a water pool with 200 mm diameter. In the pool, water was filled up to a depth of 205 mm from the bottom of the pool, and thus the rats could not touch the bottom of the pool with their hind limbs. Fifteen minutes after the completion of the forced swimming, test compounds were orally administered to the rats. On the next day, the test compounds were administered to the rats at the same dose as the previous day, and the rats were put in the pool for 5 minutes at the same clock time as the previous day. […] The antidepressant effect was evaluated by calculating how long the duration of immobility was shortened against the control. To the control, 0.5% methylcellulose solution was administered.

Slc: C57BL/6J male mice = test: Evaluation of antimanic effect (methamphetamine and chlordiazepoxide induced hyperactivity, locomotor distance); assay type: in vivo; conditions: for The rate of the shortened locomotor-distance (% control): methamphetamine 4 mg/kg and chlordiazepoxide 10 mg/kg i.p.
Source text: as §1
Test 7: Evaluation of Antimanic Effect
Test 7 evaluates the antimanic effect of medicaments. The evaluation system is a test system whose utility has been already confirmed with a known antimanic agent which is clinically used as a mood-stabilizing drug, not as a drug for treating schizophrenia (Arban et al., Behay. Brain Res., 158:123-132, 2005, Foreman et al., Pharmacol. Biochem. Behay., 89: 523-534, 2008). Test compounds were orally administered to Slc: C57BL/6J male mice (8 mice in each group, body weight 20-26 g). After 30 minutes of administration, methamphetamine (4 mg/kg) and chlordiazepoxide (10 mg/kg) were administered intraperitoneally. Then, the mice were allowed to move freely in an acrylic cage (W 360 mm×D 230 mm×H 310 mm) for 90 minutes. The locomotor distances of the mice were measured with Ethovision software (Ver. 3.1). Among the 90 minutes, the result of the latter 60 minutes with the exception of the first 30 minute's result for adaptation to the new environment was used as data of the locomotor distance. The antimanic effect was evaluated by calculating how long locomotor distance was shortened against the control. To the control mice, 0.5% methylcellulose solution was administered.

[1] = tested on: maximum electroshock seizure (MES) model; test: Maximum electroshock seizure (MES) model test; assay type: in vivo, mice
How it was run: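 Tonic hind-limb extension was elicited by corneal electroshock (60 Hz, 25 mA, 0.2 s) 1 h after oral dosing. Test compounds were given at 50 or 100 mg/kg to groups of 3 male Slc: ddY mice (20-30 g), vehicle controls receiving 0.5% tragacanth or 0.5% methylcellulose solution.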

[2] = tested on: subcutaneously pentetrazol-injected model (scPTZ); test: Subcutaneously pentetrazol-injected model (scPTZ) test; assay type: in vivo, mice; conditions: pentetrazol 85 mg/kg s.c. after 1 hour
How it was run: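 Pentetrazol (85 mg/kg, s.c.) was injected one hour after oral test compound at 50 or 100 mg/kg in groups of three male Slc:ddY mice weighing 20-30 g; vehicle controls got 0.5% tragacanth or 0.5% methylcellulose.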

[3] = tested on: 6 Hz psychomotor seizure model; test: 6 Hz psychomotor seizure model; assay type: in vivo, mice; conditions: mice, oral
Experimental: Test 4: Test of 6 Hz Psychomotor Seizure Model
Similar to Tests 1 and 2, Test 4 evaluates the anticonvulsant action of medicaments. However, unlike Tests 1 and 2, the animal model used herein represents clinical phenotypes of seizures resistant to existing antiepileptic drugs. […] After 30 minutes or an hour of administration, their corneas were electrically stimulated (6 Hz, 32 mA, 3 seconds) to induce symptoms of myoclonus in their forelimbs, Straub tail, and immobility. […] To the control mice, 0.5% tragacanth solution, 0.5% methylcellulose solution, or olive oil was administered.

| SMILES | duration of immobility (Crl: CD (SD) male rats; same conditions) | locomotor distance (Slc: C57BL/6J male mice; same conditions) | responders at 50 mg/kg ([1]; Mus musculus, po, 1 h, 50 mg/kg oral, Slc: ddY male mice, 3 per group, electrical stimulation 1 hour after administration, inhibition of hind limb extension, read-out: MES (positive number/tested number) (converted)) [%] | responders at 100 mg/kg ([1]; Mus musculus, po, 1 h, 100 mg/kg oral, Slc: ddY male mice, 3 per group, electrical stimulation 1 hour after administration, inhibition of hind limb extension, read-out: MES (positive number/tested number) (converted)) [%] | anticonvulsant action in maximum electroshock seizure (MES) model test ([1]; mice, oral 50 or 100 mg/kg, 1 hour after administration) | responders at 50 mg/kg ([2]; Mus musculus, po, 1 h, 50 mg/kg oral, Slc: ddY male mice, 3 per group, observed 30 minutes for clonic convulsion, read-out: scPTZ (positive number/tested number) (converted)) [%] | responders at 100 mg/kg ([2]; Mus musculus, po, 1 h, 100 mg/kg oral, Slc: ddY male mice, 3 per group, observed 30 minutes for clonic convulsion, read-out: scPTZ (positive number/tested number) (converted)) [%] | anticonvulsant action in subcutaneously pentetrazol-injected model (scPTZ) test ([2]; mice, oral 50 or 100 mg/kg) | ED50 ([3]; Mus musculus, 6 Hz psychomotor seizure model, read-out: ED50) [mg/kg] | 6 Hz (Positive number/tested number) ([3]; dose 50 mg, 30 minutes or 1 hour after administration) | The rate of the shortened duration of immobility (% control) (Crl: CD (SD) male rats; 10 mg/kg oral) | The rate of the shortened duration of immobility (% control) (Crl: CD (SD) male rats; 30 mg/kg oral) | The rate of the shortened locomotor-distance (% control) (Slc: C57BL/6J male mice; 30 mg/kg oral) | The rate of the shortened locomotor-distance (% control) (Slc: C57BL/6J male mice; 60 mg/kg oral) | The rate of the shortened locomotor-distance (% control) (Slc: C57BL/6J male mice; 100 mg/kg oral) |
| --- | --- | --- | --- | --- | --- | --- | --- | --- | --- | --- | --- | --- | --- | --- | --- |
| Nc1nnc(-c2cccc(Cl)c2Cl)c(N)n1 [Lamotrigine, reference compound] | dose-dependently shortened | dose-dependently shortened |  |  |  |  |  |  |  |  |  |  |  |  |  |
| NC(=O)Cc1ccccc1-c1ccccc1Cl [Example 16, 2-(2′-chlorobiphenyl-2-yl)acetamide] |  |  | 100 | 100 | anticonvulsant action was observed | 66.7 | 100 | anticonvulsant action was observed | 38.1 | 8/10/50 | 19.9 | 21.9 | 45.7 | 69.1 | 84.9 |
